Experimental data taken from US4124766A, “Substituted 3-(4-imidazolylmethylene)carbazic and thiocarbazic acid esters” (American Cyanamid Company, priority 1977, dated 1978).

How the values were obtained:
[1] = tested on: mouse skin PDE (cyclic-AMP phosphodiesterase); assay: Mouse skin phosphodiesterase (PDE) inhibition test (A); type: biochemical, mouse (hairless mice); parameters: key to Mouse Skin Phosphodiesterase (A): Active: A compound is considered active if it inhibits more than theophylline, that is, to 50% of control at 1 mM concentration of compound, or to 80% of control for 0.05 mM concentration of compound; conditions: for Mouse Skin Phosphodiesterase (A): final concentration of test compound 10 ug./ml, active = inhibits more than theophylline
[2] = tested on: monkey lung cyclic AMP phosphodiesterase; assay: Monkey lung phosphodiesterase inhibition test (B); type: biochemical, African green monkey; parameters: key to Monkey Lung Phosphodiesterase (B): Active: A compound is considered active if it inhibits more than theophylline, that is, to 50% of control at 1 mM concentration of compound, or to 80% of control for 0.05 mM concentration of compound; conditions: for Monkey Lung Phosphodiesterase (B): test compound usually 1 mM or 0.1 mM, active = inhibits more than theophylline
Protocol: Lung parenchyma of African green monkeys is homogenized in a Waring blender and centrifuged at 40,000 × gravity for 20 minutes. The supernatant is brought to 70% saturation of ammonium sulfate, centrifuged and the pellet redissolved and dialysed, before aliquoting and storage at -20° C.
Phosphodiesterase is assayed by the method of Thompson and Appleman, ibid. An assay tube contains a 0.4 ml. solution of the following: 45 mM tris-HCl buffer, pH 7.4, 6.25 mM MgCl2, 0.1 mM dithioerythritol, 10^-6 M cyclic AMP, 0.1 uCi [^3 H]-cyclic AMP, and test compound at the desired concentration (usually 1 mM or 0.1 mM). Compounds not readily soluble in water are dissolved at 40 times the desired concentration in methanol, and diluted 20 times with water. If the compound is not dissolved at this time, it is suspended by sonication before being diluted 1:2 into the assay tube. In this case the activity of the enzyme in the presence of the compound is compared to a solvent control (2.5% methanol), although the solvent alone has negligible effect. The reaction is initiated by addition of enzyme and proceedes at 25° C. for 20 minutes. It is terminated by incubation at 100° C. for 2 minutes. The tubes are cooled to 25° C., 0.8 ug of 5'-nucleotidase (Crotolus adamantus toxin) is added to each and the tubes incubated at 25° C. for 30 minutes. A one milliliter suspension of Bio-Rad Labs. AGIX8® (about 0.5 ml. of settled resin) is added, the tubes centrifuged at 900 × gravity for 10 minutes and an aliquot of supernatant removed for scintillation counting. The inhibition by the test compound is calculated as: [formula] where `compound` is the cpm in the presence of compound, `control` is the cpm in the absence of compound, and `blank` is the cpm in the absence of enzyme. […] For this reason, control tubes which contained [^3 H]-AMP instead of [^3 H]-cyclic AMP are run in parallel. A correction of the apparent phosphodiesterase activity is made for the rare compound which inhibited the hydrolysis of AMP.
A compound is considered active if it inhibits more than theophylline, that is, to 50% of control at 1 mM concentration of compound, or to 80% of control for 0.05 mM concentration of compound.

Compound	Mouse Skin Phosphodiesterase (A) [1]	Monkey Lung Phosphodiesterase (B) [2]	phosphodiesterase activity, % of control (theophylline benchmark) ([1]; 0.05 mM concentration of compound, criterion stated for skin (A) or lung (B))	phosphodiesterase activity, % of control (theophylline benchmark) ([2]; 1 mM concentration of compound, criterion stated for skin (A) or lung (B))
Cc1nc(Cc2ccccc2)n2c(=O)[nH]ncc12 [6-Benzyl-8-methyl-imidazo[1,5-d]-as-triazin-4(3H)-one]	Active			
Cc1nc(Cc2ccccc2)n2c(=S)[nH]ncc12 [6-Benzyl-8-methyl-imidazo[1,5-d]-as-triazine-4(3H)-thione]	Active	Active		
O=c1[nH]ncc2cnc(-c3ccccc3)n12 [6-Phenyl-imidazo[1,5-d]-as-triazin-4(3H)-one]	Active			
CCCc1ncc2cn[nH]c(=S)n12 [6-n-Propyl-imidazo[1,5-d]-as-triazine-4(3H)-thione]	Active	Active		
Cc1nc(C(C)(C)C)n2c(=O)[nH]ncc12 [6-tert-Butyl-8-methyl-imidazo[1,5-d]-as-triazin-4(3H)-one]	Active	Active		
CC(C)(C)c1ncc2cn[nH]c(=O)n12 [6-tert-Butyl-imidazo[1,5-d]-as-triazin-4(3H)-one]	Active			
Cc1ncn2c(=O)[nH]ncc12 [8-Methyl-imidazo[1,5-d]-as-triazin-4(3H)-one]	Active			
Cn1c(=O)c2[nH]cnc2n(C)c1=O [theophylline, reference compound]			80%	50%

The next lines start with results.

Mouse Skin Phosphodiesterase (A) [1]	Monkey Lung Phosphodiesterase (B) [2]	Compound	phosphodiesterase activity, % of control (theophylline benchmark) ([1]; 0.05 mM concentration of compound, criterion stated for skin (A) or lung (B))	phosphodiesterase activity, % of control (theophylline benchmark) ([2]; 1 mM concentration of compound, criterion stated for skin (A) or lung (B))
Active	Active	Cc1nc(C)n2c(=O)[nH]ncc12 [6,8-Dimethyl-imidazo[1,5-d]-as-triazin-4(3H)-one]		
Active		Cc1nc(C)n2c(=S)[nH]ncc12 [6,8-Dimethyl-imidazo[1,5-d]-as-triazine-4(3H)-thione]		
Active		O=c1[nH]ncc2cnc(Cc3ccccc3)n12 [6-Benzyl-imidazo[1,5-d]-as-triazin-4(3H)-one]		
Active		CCCc1ncc2cn[nH]c(=O)n12 [6-n-Propyl-imidazo[1,5-d]-as-triazin-4(3H)-one]		
Active		CCCOc1ccccc1-c1ncc2cn[nH]c(=O)n12 [6-o-Propoxyphenyl-imidazo[1,5-d]-as-triazin-4(3H)-one]		
Active	Active	O=c1[nH]ncc2c(Br)nc(-c3ccccc3)n12 [8-Bromo-6-phenyl-imidazo[1,5-d]-as-triazin-4(3H)-one]		
Active	Active	O=c1[nH]ncc2c(Cl)nc(-c3ccccc3)n12 [8-Chloro-6-phenyl-imidazo[1,5-d]-as-triazin-4(3H)-one]		
Active	Active	CCCc1nc(C)c2cn[nH]c(=S)n12 [8-Methyl-6-n-propyl-imidazo[1,5-d]-as-triazine-4(3H)-thione]		
Active	Active	Cc1nc(-c2ccccc2)n2c(=O)[nH]ncc12 [8-Methyl-6-phenyl-imidazo[1,5-d]-as-triazin-4(3H)-one]		
Active		Cc1nc(-c2ccccc2)n2c(=S)[nH]ncc12 [8-Methyl-6-phenyl-imidazo[1,5-d]-as-triazine-4(3H)-thione]		
Active		Cc1ncn2c(=S)[nH]ncc12 [8-Methyl-imidazo[1,5-d]-as-triazine-4(3H)-thione]		
